From ChEMBL document CHEMBL5380809, “Discovery of Novel N-Hydroxy-1,2,4-oxadiazole-5-formamides as ASM Direct Inhibitors for the Treatment of Atherosclerosis” (J Med Chem, 2023)
The source made the active and inactive calls. The rule behind the calls is not given here.

Assays:
[1] = tested on: HUVEC; experiment: Downregulation of extracellular ceramide level in HUVEC cells upto 5 uM measured after 22 hrs by ELISA method; type: functional, cell-based; conditions: Homo sapiens
[2] = tested on: HUVEC; experiment: Upregulation of extracellular sphingomyelin level in HUVEC cells upto 5 uM measured after 22 hrs by ELISA method; type: functional, cell-based; conditions: Homo sapiens
[3] = MRT (0 to t) in ICR mouse at 10 mg/kg, po measured for 0.083 to 24 hrs by LC-MS/MS analysis; type: ADME, organism-based; conditions: in vivo, time 0.083-24 hrs
[4] = tested on: Mus musculus; experiment: Antiatherosclerotic activity in high-fat diet fed ApoE-/- mouse assessed as reduction in lipid plaque area administered intraperitoneally twice daily measured after 8 weeks by oil red O staining based analysis; type: functional, organism-based; conditions: dose 12-40 mg/kg, route ip
[5] = tested on: HUVEC; experiment: Antiinflammatory activity against HUVEC cells assessed as decrease in Ox-LDL-induced MCP-1 mRNA level at 5 uM measured after 22 hrs by RT-PCR analysis; type: functional, cell-based; conditions: Homo sapiens
[6] = AUC (0 to infinity ) in ICR mouse at 1 mg/kg, iv measured for 0.083 to 24 hrs by LC-MS/MS analysis; type: ADME, organism-based; parameters: time upper 24 hrs, time lower 0.083 hrs, dose 1 mg/kg, route iv; conditions: in vivo
[7] = tested on: HUVEC; experiment: Downregulation of intracellular ceramide level in LPS-induced HUVEC cells at 5 uM measured after 22 hrs by ELISA method; type: functional, cell-based; conditions: Homo sapiens
[8] = Oral bioavailability in ICR mouse at 10 mg/kg measured for 0.083 to 24 hrs by LC-MS/MS analysis; type: ADME, organism-based; conditions: in vivo, time 0.083-24 hrs
[9] = tested on: HUVEC; experiment: Upregulation of extracellular sphingomyelin level in Ox-LDL-induced HUVEC cells upto 5 uM measured after 22 hrs by ELISA method; type: functional, cell-based; conditions: Homo sapiens
[10] = AUC (0 to t) in ICR mouse at 10 mg/kg, po measured for 0.083 to 24 hrs by LC-MS/MS analysis; type: ADME, organism-based; parameters: time upper 24 hrs, time lower 0.083 hrs, dose 10 mg/kg, route po; conditions: in vivo
[11] = In vivo inhibition of aSMase in C57BL/6 mouse assessed as decrease in liver aSMase level at 40 mg/kg, ip bid for 1 week by ELISA method relative to control; type: functional; parameters: scale not given: the % may be the effect or the level left; conditions: time 1 weeks
[12] = MRT (0 to infinity) in ICR mouse at 10 mg/kg, po measured for 0.083 to 24 hrs by LC-MS/MS analysis; type: ADME, organism-based; conditions: in vivo, time 0.083-24 hrs
[13] = Tmax in ICR mouse at 10 mg/kg, po measured for 0.083 to 24 hrs by LC-MS/MS analysis; type: ADME, organism-based; conditions: in vivo, time 0.083-24 hrs
[14] = Half life in ICR mouse at 1 mg/kg, iv measured for 0.083 to 24 hrs by LC-MS/MS analysis; type: ADME, organism-based; conditions: in vivo, time 0.083-24 hrs
[15] = tested on: Mus musculus; experiment: In vivo inhibition of aSMase in C57BL/6 mouse assessed as decrease in plasma sphingomyelin level at 6 to 40 mg/kg, ip bid for 1 week by ELISA method; type: functional, organism-based; conditions: dose 6-40 mg/kg, time 1.0 weeks
[16] = tested on: HUVEC; experiment: Antiinflammatory activity against HUVEC cells assessed as decrease in Ox-LDL-induced IL-6 mRNA level at 5 uM measured after 22 hrs by RT-PCR analysis; type: functional, cell-based; conditions: Homo sapiens
[17] = tested on: Mus musculus; experiment: Antiatherosclerotic activity in high-fat diet fed ApoE-/- mouse assessed as reduction in aortic arch lipid accumulation at 12 to 40 mg/kg, ip bid measured after 8 weeks; type: functional, organism-based; conditions: dose 12-40 mg/kg
[18] = tested on: HUVEC; experiment: Antiinflammatory activity against HUVEC cells assessed as decrease in LPS-induced TNF-alpha level measured after 22 hrs by ELISA method; type: functional, cell-based; conditions: Homo sapiens, dose 1-5 µM
[19] = tested on: HUVEC; experiment: Effect on extracellular S1P level in LPS-induced HUVEC cells upto 5 uM measured after 22 hrs by ELISA method; type: functional, cell-based; conditions: Homo sapiens
[20] = tested on: Mus musculus; experiment: Antiatherosclerotic activity in high-fat diet fed ApoE-/- mouse assessed as reduction in plasma LDL-C level at 12 to 40 mg/kg, ip bid measured after 8 weeks; type: functional, organism-based; conditions: dose 12-40 mg/kg

Structure (SMILES): O=C(NO)c1nc(-c2ccc(COc3ccc(Br)cc3)cc2)no1
- Activity [1]: Active
- Activity [2]: Active
- MRT last [3]: 19.2 min
- Activity [4]: Dose-Dependent Effect
- Activity [5]: Active
- AUC(0-inf) [6]: 228 ng·h/mL
- Activity [7]: Active
- bioavailability [8]: 35.4%
- Activity [9]: Active
- AUC(0-t) [10]: 805 ng·h/mL
- Activity [11]: 22%
- MRT inf [12]: 21 min
- Tmax [13]: 4.98 min
- half-life [14]: 12 min
- Activity [15]: Active
- Activity [16]: Active
- Activity [17]: Active
- Activity [18]: Dose-Dependent Effect
- Activity [19]: inactive
- Activity [20]: Active
